Source: publication PMC6249675 (Structure (London, England : 1993), 2018)

Columns and labels:
Rac1 [1] = molecular target: T1, Rac1 (Homo sapiens, UniProt P63000); assay: strong anion exchange chromatography of co-purified nucleotide; assay type: binding; conditions: co-purified from E. coli
Rac1 [2] = molecular target: T1, Rac1; assay: GTP hydrolysis followed by strong anion exchange chromatography; assay type: biochemical; conditions: 5 mM GTP, 5 mM MgCl2, room temperature, 24 h
Rnd3 = molecular target: T2, Rnd3 (Homo sapiens, UniProt P61587); assay: strong anion exchange chromatography of co-purified nucleotide; assay type: binding; conditions: co-purified from E. coli; not hydrolysed
T2 sequence (P61587 19-200): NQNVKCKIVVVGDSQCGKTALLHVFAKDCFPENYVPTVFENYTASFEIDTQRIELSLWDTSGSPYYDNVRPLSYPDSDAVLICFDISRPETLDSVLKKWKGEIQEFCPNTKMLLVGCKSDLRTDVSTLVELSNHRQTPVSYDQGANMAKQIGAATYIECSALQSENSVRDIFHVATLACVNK

Row | Structure (SMILES) | strong anion exchange chromatography of co-purified nucleotide (Rac1 [1]) | GTP hydrolysis followed by strong anion exchange chromatography (Rac1 [2]) | strong anion exchange chromatography of co-purified nucleotide (Rnd3)
1 | Nc1nc2c(ncn2[C@@H]2O[C@H](COP(=O)(O)OP(=O)(O)O)[C@@H](O)[C@H]2O)c(=O)[nH]1 [GDP] | wild-type Rac1 which, like other active GTPases, is bound predominantly to GDP | – | –
2 | Nc1nc2c(ncn2[C@@H]2O[C@H](COP(=O)(O)OP(=O)(O)OP(=O)(O)O)[C@@H](O)[C@H]2O)c(=O)[nH]1 [GTP] | – | Rac1 (preloaded with GTP) exhibits complete hydrolysis of GTP to GDP in identical conditions | N-GTPase is similar to the pseudoGTPase Rnd3, which binds only GTP (Fig. 4d)
